The target in assay [1] is T1, ROS-GC1 (Bos taurus, UniProt P55203, F570S).
T1 construct: gene GUCY2D
Nature of the assay: biochemical.

Assay [2] concerns the target T2, ROS-GC1 (Bos taurus, UniProt P55203).
T2 construct: gene GUCY2D
In words: biochemical.

The structures appear in SMILES notation. pEC50: −log10 of the molar value.

T1 sequence (P55203 57-1110 F570S): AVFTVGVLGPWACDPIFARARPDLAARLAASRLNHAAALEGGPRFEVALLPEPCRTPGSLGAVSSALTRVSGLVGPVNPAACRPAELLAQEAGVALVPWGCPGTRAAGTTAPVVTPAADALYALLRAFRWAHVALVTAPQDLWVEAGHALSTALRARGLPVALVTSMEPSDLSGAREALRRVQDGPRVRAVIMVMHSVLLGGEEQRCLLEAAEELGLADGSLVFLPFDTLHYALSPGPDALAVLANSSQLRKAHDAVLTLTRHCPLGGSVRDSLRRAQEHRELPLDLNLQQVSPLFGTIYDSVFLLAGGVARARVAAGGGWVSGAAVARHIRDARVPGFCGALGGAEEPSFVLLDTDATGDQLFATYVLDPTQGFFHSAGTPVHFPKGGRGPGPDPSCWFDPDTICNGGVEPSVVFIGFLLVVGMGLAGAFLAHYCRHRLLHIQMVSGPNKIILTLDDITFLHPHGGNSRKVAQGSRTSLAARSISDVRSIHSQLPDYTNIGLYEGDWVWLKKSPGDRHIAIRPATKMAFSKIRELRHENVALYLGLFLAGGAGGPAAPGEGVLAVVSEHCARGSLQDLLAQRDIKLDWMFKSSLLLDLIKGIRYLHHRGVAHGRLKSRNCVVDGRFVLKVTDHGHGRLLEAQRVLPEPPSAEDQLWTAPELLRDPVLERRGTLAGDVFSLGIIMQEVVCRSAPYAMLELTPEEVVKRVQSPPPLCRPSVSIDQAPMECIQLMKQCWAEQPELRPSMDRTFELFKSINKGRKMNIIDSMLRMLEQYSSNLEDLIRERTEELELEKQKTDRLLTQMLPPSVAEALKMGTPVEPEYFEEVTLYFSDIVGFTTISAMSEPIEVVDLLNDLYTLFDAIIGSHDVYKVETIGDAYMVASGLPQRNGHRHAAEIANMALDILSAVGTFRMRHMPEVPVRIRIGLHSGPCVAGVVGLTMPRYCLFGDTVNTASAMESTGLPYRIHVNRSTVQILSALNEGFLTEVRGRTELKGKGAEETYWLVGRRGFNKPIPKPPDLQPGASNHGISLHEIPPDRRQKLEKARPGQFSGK
T2 sequence (P55203 57-1110): as the sequence (P55203 57-1110 F570S) above, with S514F counted along it

`O=C(O)O` [bicarbonate]: the negative-log EC50 (pEC50) (in general, −log10 of the EC50, conventionally taken in molar units) at ROS-GC1 [1] was 1.60; on ROS-GC1 [2], 1.80.

For the origin of these results see publication PMC4729890 (Frontiers in Molecular Neuroscience, 2016).
